Assay results as given in patent publication US20090035353A1 (priority 2001, published 2009).

Legend:
Assay type in all cases: cell-based, Staphylococcus aureus
[1] = test system: production of TSST-1 by S. aureus (MN8)
[2] = test system: TSST-1 production by S. aureus FRI-1169
[3] = test system: TSST-1 production by S. aureus FRI-1187

For “4-hydroxydiphenyl methane [4-Hydroxydiphenyl-methane]”, the “ELISA: TSST-1 ng/OD unit” value [1] was 785.

With `Oc1c(Cl)cc(Cl)c(Cl)c1Cc1c(O)c(Cl)cc(Cl)c1Cl` [Hexachlorophene, hexachlorophene] the “ELISA: TSST-1 ng/OD unit” value [1] was 330 and the “TSST-1 produced when compared to the control” value [1] was “significantly less TSST-1”.

For `Oc1cc(Cl)ccc1Oc1ccc(Cl)cc1Cl` [Triclosan, triclosan], the “ELISA: TSST-1 ng/OD unit” value [2] was 40, the “TSST-1 produced when compared to the control” value [2] was “less TSST-1” and the “ELISA: TSST-1 ng/OD unit” value [3] was 95. For the same molecule, the “TSST-1 produced when compared to the control” value [3] was “less TSST-1”, the “ELISA: TSST-1 ng/OD unit” value [1] was 129 and the “TSST-1 produced when compared to the control” value [1] was “significantly less TSST-1”.
